Source: EP2527351B1, “Lipophosphonoxins, method of their preparation and use” (priority 2011, dated 2012)
Values after ≈ are worked out from the molar mass of the structure shown.

Columns and labels:
B. subtilis = assay: Microdilution MIC, reference strain; conditions: read after 24/48 hours at 37°C
Protocol: (§2) Antimicrobial activity is assessed using the standard microdilution method determining the minimum inhibitory concentration (MIC) of the tested samples leading to inhibition of bacterial growth. Disposable microtitration plates are used for the tests. The samples were diluted in brain heart infusion broth (Himedia, Laboraties Pvt. Ltd., ? eská republika) and Mueller-Hinton broth (HiMedia Laboraties, see above) to yield a concentration range between 200 µg/ml and 1.5625 µg/ml. The plates are inoculated with a standard amount of the tested microbe - the inoculum density in each well is equal to 10^5-6 CFU/ml. The MIC is read after 24/48 hours of incubation at 37°C as the minimum inhibitory concentration of the tested substance that inhibits the growth of the bacterial strains.
(§3) Standard reference bacterial strains (E. faecalis CCM 4224, S. aureus CCM 4223) from the Czech Collection of Microorganisms (CCM), Faculty of Science, Masaryk University Brno, S. agalactiae, B. subtilis, methicilin-resistant S. aureus 4591, fluoroquinolone-resistant S. haemolyticus 16568, vancomycin-resistant E. faecium VanA419/ana and methicilin-resistant S. epidermidis 8700/B strains obtained from the Teaching Hospital Olomouc were used. All tested microorganisms were stored in cryotubes (ITEST plus, Czech Republic) at -80°C.

S. epidermidis 8700/B = assay: Microdilution MIC, resistant strain; conditions: methicilin-resistant strain, 24/48 hours at 37°C
Protocol: as §2
(§4) Standard reference bacterial strains (E. faecalis CCM 4224, S. aureus CCM 4223) from the Czech Collection of Microorganisms (CCM), Faculty of Science, Masaryk University Brno, S. agalactiae, B. subtilis, methicilin-resistant S. aureus 4591, fluoroquinolone-resistant S. haemolyticus 16568, vancomycin-resistant E. faecium VanA419/ana and methicilin-resistant S. epidermidis 8700/B strains obtained from the Teaching Hospital Olomouc were used. All tested microorganisms were stored in cryotubes (ITEST plus, Czech Republic) at -80°C. […]

S. haemolyticus 16568 = assay: Microdilution MIC, resistant strain; conditions: fluoroquinolone-resistant strain, 24/48 hours at 37°C
Protocol: as §2, §4

S.agalactiae = assay: Microdilution MIC, reference strain; conditions: read after 24/48 hours at 37°C
Protocol: as §2, §3

[1] = system: normal human erythroid progenitor cells; assay: CytoTox-ONE Homogeneous Membrane Integrity Assay (LDH release); format: cell-based; conditions: cytotoxicity, CytoToxOne, after 4 hours
Protocol: Human immature erythroid progenitors isolated from umbilical cord blood are cultivated in the StemSpan serum-free medium (StemCell Technologies) in the presence of the stem cell factor (SCF, 100 ng/ml), erythropoetin (EPO, 33.34 nkat/ml) and dexamethasone (1 µmol.l^-1) (Panzenbock et al. 1998). Cells are plated at 25000 cells/well/20 µl in 384-well plates immediately before addition of lipophosphonoxine compound from particular examples. After 48 hours of incubation at 37 °C in 5% CO2 viability is determined by using the commercial CellTiter-Blue® Cell Viability Assay (Promega, Cat.# G8082). […] After an incubation step, data are recorded.
Cytotoxicity is determined after 4 hours at 37 °C in 5% CO2 using commercial CytoTox-ONE™ Homogeneous Membrane Integrity Assay (Promega, Cat.# G7892), a fluorometric method for estimating the number of non-viable cells present in multiwell plates. […] LDH released into the culture medium is measured with a 10-minute coupled enzymatic assay that results in the conversion of resazurin into a fluorescent resorufin product. The amount of fluorescence produced is proportional to the number of lysed cells.
(§1) The fluorescence intensity is measured using the EnVision plate reader (PerkinElmer). Data are analyzed using GraphPad Prism 5.0 statistical software.

S. aureus MRSA 4591 = assay: Microdilution MIC, resistant strain; conditions: methicilin-resistant strain, 24/48 hours at 37°C
Protocol: as §2, §4

[2] = system: normal erythroid progenitor cells; assay: CellTiter-Blue Cell Viability Assay; format: cell-based, Human; conditions: 48 hours of incubation
Protocol: Human immature erythroid progenitors isolated from umbilical cord blood are cultivated in the StemSpan serum-free medium (StemCell Technologies) in the presence of the stem cell factor (SCF, 100 ng/ml), erythropoetin (EPO, 33.34 nkat/ml) and dexamethasone (1 µmol.l^-1) (Panzenbock et al. 1998). Cells are plated at 25000 cells/well/20 µl in 384-well plates immediately before addition of lipophosphonoxine compound from particular examples. After 48 hours of incubation at 37 °C in 5% CO2 viability is determined by using the commercial CellTiter-Blue® Cell Viability Assay (Promega, Cat.# G8082). The assay is based on the ability of living cells to convert a redox dye (resazurin) into a fluorescent end product (resorufin). […] The homogeneous assay procedure involves adding the single reagent directly to cells cultured in serum-supplemented medium. After an incubation step, data are recorded.
as §1

E. faecalis CCM 4224 = assay: Microdilution MIC, reference strain; conditions: read after 24/48 hours at 37°C
Protocol: as §2, §3

E. faecium VanA 419/ana = assay: Microdilution MIC, resistant strain; conditions: vancomycin-resistant strain, 24/48 hours at 37°C
Protocol: as §2, §4

cyst formation = conditions: cited from earlier work
[3] = system: Giardia trophozoite growth; conditions: cited from earlier work
mice = conditions: mouse, in vivo; cited from earlier work
[4] = system: Mycobacterium tuberculosis strains; conditions: drug-susceptible strains, in vitro; cited from earlier work

Q: With `CCCCCCCCCCCCCCOP(=O)(CCN1C[C@@H](O)[C@H](O)C1)OC[C@H]1O[C@@H](n2ccc(=O)[nH]c2=O)[C@H](O)[C@@H]1O` (stereo partly drawn) [Example 17, Tetradecyl uridin-5'-yl 2-([3R,4R]-3,4-dihydroxypyrrolidin-l-N-yl)ethylphosphonate] as the compound, how does the “MIC B. subtilis” value (B. subtilis) read?
A: Its value is 6,25 µg/ml.

Q: And the “MIC S. epidermidis 8700/B” value (S. epidermidis 8700/B)?
A: Its value is 12,5 µg/ml.

Q: What about the “MIC S. haemolyticus 16568” value (S. haemolyticus 16568) of the same compound?
A: The value was 12,5 µg/ml.

Q: What about the “MIC S.agalactiae” value (S.agalactiae) of the same compound?
A: The value was 6,25 µg/ml.

Q: What about the EC50 [1] of the same compound?
A: The EC50 was 302 µg/mL (≈ 477 µM).

Q: What about the “[Max. safety concentration]” value [1] of the same compound?
A: Its value is 125 µg/mL.

Q: What about the “MIC S. aureus MRSA 4591” value (S. aureus MRSA 4591) of the same compound?
A: Its value is 25 µg/mL (≈ 39.4 µM).

Q: What about the IC50 [2] of the same compound?
A: The IC50 was 47 µg/mL (≈ 74.2 µM).

Q: What about the “[Max. safety concentration]” value [2] of the same compound?
A: Its value is 31 µg/mL.

Q: What about the “MIC E. faecalis CCM 4224” value (E. faecalis CCM 4224) of the same compound?
A: Its value is 12,5 µg/ml.

Q: What about the “MIC E. faecium VanA 419/ana” value (E. faecium VanA 419/ana) of the same compound?
A: The value was 12,5 µg/ml.

Q: What does the source list for `O=c1ccn([C@@H]2O[C@H](COP(=O)(O)CCN3C[C@@H](O)[C@H](O)C3)[C@@H](O)[C@H]2O)c(=O)[nH]1` [phosphonoxin]?
A: cyst formation (cyst formation): did not specifically inhibit; vegetative growth [3]: potently inhibited

Q: For “Hexadecyloxypropyl uridin-5'-yl 2-([3R,4S,5S]-3,4-trihydroxypiperidin-1-N-yl)ethyl-phosphonate [Example 12]”, which “MIC S.agalactiae” value (S.agalactiae) is on record?
A: Its value is 12,5 µg/ml.

Q: And the IC50 [2]?
A: The IC50 was 141 µg/mL.

Q: And the “[Max. safety concentration]” value [2]?
A: The value was 62 µg/mL.

Q: With “Hexadecyloxypropyl uridin-5'-yl 2-([3R,5R]-3,4-dihydroxypiperidin-1-N-yl)ethyl-phosphonate [Example 11]” as the compound, how does the “MIC B. subtilis” value (B. subtilis) read?
A: The value was 6,25 µg/ml.

Q: What about the “MIC S. epidermidis 8700/B” value (S. epidermidis 8700/B) of the same compound?
A: The value was 6,25 µg/ml.

Q: And the “MIC S.agalactiae” value (S.agalactiae)?
A: Its value is 6,25 µg/ml.

Q: And the IC50 [2]?
A: The IC50 was 40 µg/mL.

Q: And the “[Max. safety concentration]” value [2]?
A: The value was 31 µg/mL.

Q: And the “MIC E. faecalis CCM 4224” value (E. faecalis CCM 4224)?
A: The value was 12,5 µg/ml.

Q: And the “MIC E. faecium VanA 419/ana” value (E. faecium VanA 419/ana)?
A: Its value is 6,25 µg/ml.

Q: With “Hexadecyloxypropyl uridin-5'-yl 2-([3R,5R]-3,4-dihydroxypiperidin-1-N-yl)ethylphosphonate [Example 13]” as the compound, how does the “MIC S.agalactiae” value (S.agalactiae) read?
A: Its value is 6,25 µg/ml.

Q: And the IC50 [2]?
A: The IC50 was 45 µg/mL.

Q: And the “[Max. safety concentration]” value [2]?
A: The value was 15 µg/mL.

Q: For caprazamycins [CPZs], which toxicity in mice (mice) is on record?
A: Its toxicity in mice is “no significant toxicity”.

Q: What about the MIC [4] of the same compound?
A: Its MIC is 3.13 µg/mL.
